US9758484B2 (Asieris Pharmaceutical Technologies Co., Ltd., priority 2013, dated 2017)
Where “and” joins values, the source holds several entries; their conditions need not be identical. Identical values can stand only once. Counter-ions that a name gives are not always drawn.

Tests used:
[1] = In vivo urinary excretion of nitroxoline and nitroxoline salts in beagle dogs; conditions: for 24-Hr Accumulated drug in the urine: In Dogs, 75 mg APL-1202 or equivalent amount; for f (%): percentage of total mass of excreted drug versus the dose amount / Total mass of nitroxoline in urine / Mass of nitroxoline in urine, 0-2 hr / Mass of nitroxoline in urine, 2-4 hr / Mass of nitroxoline in urine, 4-6 hr / Mass of nitroxoline in urine, 6-8 hr / Mass of nitroxoline in urine, 8-24 hr: individual dogs; for f (%): percentage of total mass of excreted drug versus the dose amount / Total mass of nitroxoline in urine / Mass of nitroxoline in urine, 0-2 hr / Mass of nitroxoline in urine, 2-4 hr / Mass of nitroxoline in urine, 4-6 hr / Mass of nitroxoline in urine, 6-8 hr / Mass of nitroxoline in urine, 8-24 hr / f (%): percentage of total mass of excreted drug versus the dose amount, Mean / Total mass of nitroxoline in urine, Mean / Mass of nitroxoline in urine, 0-2 hr, Mean / Mass of nitroxoline in urine, 2-4 hr, Mean / Mass of nitroxoline in urine, 4-6 hr, Mean / Mass of nitroxoline in urine, 6-8 hr, Mean / Mass of nitroxoline in urine, 8-24 hr, Mean: oral tablet, 75 mg nitroxoline equivalent; for Total mass of nitroxoline in urine / Total mass of nitroxoline in urine, Mean: 0-24 hr; for Mass of nitroxoline in urine, 0-2 hr / Mass of nitroxoline in urine, 0-2 hr, Mean: collection 0-2 hr; for Mass of nitroxoline in urine, 2-4 hr / Mass of nitroxoline in urine, 2-4 hr, Mean: collection 2-4 hr; for Mass of nitroxoline in urine, 4-6 hr / Mass of nitroxoline in urine, 4-6 hr, Mean: collection 4-6 hr; for Mass of nitroxoline in urine, 6-8 hr / Mass of nitroxoline in urine, 6-8 hr, Mean: collection 6-8 hr; for Mass of nitroxoline in urine, 8-24 hr / Mass of nitroxoline in urine, 8-24 hr, Mean: collection 8-24 hr; for f (%): percentage of total mass of excreted drug versus the dose amount, Mean / Total mass of nitroxoline in urine, Mean / Mass of nitroxoline in urine, 0-2 hr, Mean / Mass of nitroxoline in urine, 2-4 hr, Mean / Mass of nitroxoline in urine, 4-6 hr, Mean / Mass of nitroxoline in urine, 6-8 hr, Mean / Mass of nitroxoline in urine, 8-24 hr, Mean: mean of dogs
Method: Urine samples were collected in the following periods of time: 0-2, 2-4, 4-6, 6-8, 8-24 h. Urine samples were analyzed by LC/MS/MS method utilizing an Agilent 1100 HPLC system with a CTC auto-sampler, an AB API4000 mass spectrometer, and a column of ACQUITY UPLC BEH C18 (2.1*50 mm) Dexamethasone was used as an internal standard. […] The range of linearity was determined to be 25˜5000 ng/mL.
(§1) The same study was repeated with APL-1092, nitroxoline lysine salt.

[2] = In vivo urinary excretion of nitroxoline and nitroxoline salts in mice; parameters: species or system CD-1 ICR mice; conditions: for 24-Hr Accumulated drug in the urine: In Mice, 41.8 mg/Kg APL-1202 or equivalent dose; for 24-Hr Accumulated drug in the urine / Total mass of nitroxoline in urine and wash / f (%): percentage of total mass of excreted drug versus the dose amount / Mass of nitroxoline, 0~2 wash / Mass of nitroxoline, 2~6 wash / Mass of nitroxoline, 6~24 wash / Mass of nitroxoline in urine, 0-2 hr / Mass of nitroxoline in urine, 2-6 hr / Mass of nitroxoline in urine, 6-24 hr / Total mass of nitroxoline in urine and wash, Mean / f (%): percentage of total mass of excreted drug versus the dose amount, Mean / Mass of nitroxoline, 0~2 wash, Mean / Mass of nitroxoline, 2~6 wash, Mean / Mass of nitroxoline, 6~24 wash, Mean / Mass of nitroxoline in urine, 0-2 hr, Mean / Mass of nitroxoline in urine, 2-6 hr, Mean / Mass of nitroxoline in urine, 6-24 hr, Mean: 41.8 mg/kg; for Total mass of nitroxoline in urine and wash / f (%): percentage of total mass of excreted drug versus the dose amount / Mass of nitroxoline, 0~2 wash / Mass of nitroxoline, 2~6 wash / Mass of nitroxoline, 6~24 wash / Mass of nitroxoline in urine, 0-2 hr / Mass of nitroxoline in urine, 2-6 hr / Mass of nitroxoline in urine, 6-24 hr: individual mice; for Total mass of nitroxoline in urine and wash / f (%): percentage of total mass of excreted drug versus the dose amount / Mass of nitroxoline, 0~2 wash / Mass of nitroxoline, 2~6 wash / Mass of nitroxoline, 6~24 wash / Mass of nitroxoline in urine, 0-2 hr / Mass of nitroxoline in urine, 2-6 hr / Mass of nitroxoline in urine, 6-24 hr / Total mass of nitroxoline in urine and wash, Mean / f (%): percentage of total mass of excreted drug versus the dose amount, Mean / Mass of nitroxoline, 0~2 wash, Mean / Mass of nitroxoline, 2~6 wash, Mean / Mass of nitroxoline, 6~24 wash, Mean / Mass of nitroxoline in urine, 0-2 hr, Mean / Mass of nitroxoline in urine, 2-6 hr, Mean / Mass of nitroxoline in urine, 6-24 hr, Mean: oral, equivalent of 41.8 mg/Kg nitroxoline; for Total mass of nitroxoline in urine and wash / Total mass of nitroxoline in urine and wash, Mean: 0-24 hr; for Mass of nitroxoline, 0~2 wash / Mass of nitroxoline, 0~2 wash, Mean: cage wash 0~2 hr; for Mass of nitroxoline, 2~6 wash / Mass of nitroxoline, 2~6 wash, Mean: cage wash 2~6 hr; for Mass of nitroxoline, 6~24 wash / Mass of nitroxoline, 6~24 wash, Mean: cage wash 6~24 hr; for Total mass of nitroxoline in urine and wash, Mean / f (%): percentage of total mass of excreted drug versus the dose amount, Mean / Mass of nitroxoline, 0~2 wash, Mean / Mass of nitroxoline, 2~6 wash, Mean / Mass of nitroxoline, 6~24 wash, Mean / Mass of nitroxoline in urine, 0-2 hr, Mean / Mass of nitroxoline in urine, 2-6 hr, Mean / Mass of nitroxoline in urine, 6-24 hr, Mean: mean of mice
Method: Urine samples were collected in the following periods of time: 0-2, 2-6, 6-24 h. Due to the small volume of the urine from mice, the collecting system in the cage was washed with water at each collecting time. Urine samples and their wash samples were analyzed according to the same methods used in the beagle dog study (Example 24).
as §1

[3] = Solubility tests of nitroxoline and nitroxoline salts in aqueous buffers and water; assay type: physicochemical; conditions: aqueous buffers pH 1.2 to 8, 25 °C, pH 1.2, aqueous buffer, thermodynamic from solid, all pHs tested, from pH 1.2 to 8; read-out: solubility at all pHs tested
Method: 1) Aqueous buffer solutions with varying pH were prepared as follows: • i. Water: distilled water; • ii. pH=1.2 buffer: 7.65 mL 36.5% HCl solution was diluted to 1000 mL with water; • iii. pH=4.5 buffer: 18 g sodium acetate and 9.8 mL acetic acid were diluted to 1000 mL with water; • iv. pH=5.0 buffer: sodium hydroxide was added to 0.2 mol/L monosodium phosphate (NaH2PO4) solution until the pH was adjusted to 5.0; • v. pH=6.0 buffer: 18 g sodium acetate were added into 20 mL acetic acid solution (1 M), and the mixture was diluted to 500 mL with water; • vi. pH=6.8 buffer: 250 mL of 0.2 M monopotassium phosphate (KH2PO4) solution were added to 118 mL of 0.2 M sodium hydroxide solution, and the mixture was diluted to 1000 mL with water; • vii. pH=7.4 buffer: 1.36 g monopotassium phosphate (KH2PO4) were added to 79 mL of 0.1 M sodium hydroxide solution, and the mixture was diluted to 200 mL with water; and • viii pH=8.0 buffer: 5.59 g potassium biphosphate (K2HPO4) and 0.41 g monopotassium. phosphate (KH2PO4) were added to 1000 mL water and mixed.
2) Solubility tests were performed generally as follows:
Under a temperature of 25±2° C., 10 mg of each salt sample was weighed and added to a 100 mL volumetric bottle. 0.25 mL buffer was added to the bottle, which was shaken vigorously for 30 seconds every 5 min.
If the sample was not completely dissolved, 0.7 mL of the same buffer was added, and dissolution was observed by the same shaking procedure.
If the sample was not completely dissolved, 8.5 mL of the same buffer was added, and dissolution was observed by the same shaking procedure.
If the sample was not completely dissolved, 85 mL of the same buffer was added, and dissolution was observed by the same shaking procedure.

[4] = humans, orally administered; cited from earlier work

24-Hr Accumulated drug in the urine [1] [µg]	f (%): percentage of total mass of excreted drug versus the dose amount [1]	Total mass of nitroxoline in urine [1]	Mass of nitroxoline in urine, 0-2 hr [1]	Mass of nitroxoline in urine, 2-4 hr [1]	Mass of nitroxoline in urine, 4-6 hr [1]	Mass of nitroxoline in urine, 6-8 hr [1]	Mass of nitroxoline in urine, 8-24 hr [1]	f (%): percentage of total mass of excreted drug versus the dose amount, Mean [1] [%]	Total mass of nitroxoline in urine, Mean [1] [ng]	Mass of nitroxoline in urine, 0-2 hr, Mean [1] [ng]	Mass of nitroxoline in urine, 2-4 hr, Mean [1] [ng]	Mass of nitroxoline in urine, 4-6 hr, Mean [1] [ng]	Mass of nitroxoline in urine, 6-8 hr, Mean [1] [ng]	Mass of nitroxoline in urine, 8-24 hr, Mean [1] [ng]	24-Hr Accumulated drug in the urine [2] [µg]	SMILES	Total mass of nitroxoline in urine and wash [2]	f (%): percentage of total mass of excreted drug versus the dose amount [2]	Mass of nitroxoline, 0~2 wash [2]	Mass of nitroxoline, 2~6 wash [2]	other results
617	1.1% and 0.419% and 0.949%	825000 ng and 313943 ng and 711720 ng	0 ng and 15153 ng and 163020 ng	0 ng and 130150 ng and 219300 ng	0 ng (2×) and 96900 ng	0 ng (2×) and 22165 ng	825000 ng and 49575 ng and 329400 ng	0.823	616888	89086	174725	96900	22165	401325	139	O=[N+]([O-])c1ccc(O)c2ncccc12 [APL-1092, Nitroxoline Lysine Salt]	174297 ng and 118681 ng and 56516 ng and 155110 ng and 87439 ng and 143396 ng	34.7% and 22.3% and 11.1% and 28.4% and 17.7% and 19.8%	113000 ng and 25240 ng and 15015 ng and 25300 ng and 47650 ng and 19320 ng	6055 ng and 3618 ng and 8190 ng and 4635 ng and 4868 ng and 1960 ng	increase in drug excretion in the urine as compared to nitroxoline ([1]; beagle dogs, dosed at the equivalent amount of nitroxoline in moles): more than five times; Mass of nitroxoline, 6~24 wash [2]: 296 ng and 158 ng and 246 ng and 286 ng and 227 ng and 190 ng; Mass of nitroxoline in urine, 0-2 hr [2]: 51600 ng and 84300 ng and 31970 ng and 107380 ng and 31122 ng and 120000 ng; Mass of nitroxoline in urine, 2-6 hr [2]: 3308.5 ng and 5263.2 ng and 1084 ng and 17458 ng and 3500 ng and 1846 ng; Mass of nitroxoline in urine, 6-24 hr [2]: 37.5 ng and 101.64 ng and 10.4 ng and 51 ng and 73 ng and 79.6 ng; Total mass of nitroxoline in urine and wash, Mean [2]: 122573 ng; f (%): percentage of total mass of excreted drug versus the dose amount, Mean [2]: 22.3%; Mass of nitroxoline, 0~2 wash, Mean [2]: 40921 ng; Mass of nitroxoline, 2~6 wash, Mean [2]: 4888 ng; Mass of nitroxoline, 6~24 wash, Mean [2]: 234 ng; Mass of nitroxoline in urine, 0-2 hr, Mean [2]: 71062 ng; Mass of nitroxoline in urine, 2-6 hr, Mean [2]: 5410 ng; Mass of nitroxoline in urine, 6-24 hr, Mean [2]: 58.8 ng; increase of drug excretion in the urine as compared to nitroxoline ([2]; mice, dosed at the equivalent amount of nitroxoline in moles): approximately two times greater
97	0.074% and 0.11% and 0.205%	55350 ng and 82489 ng and 153888 ng	5670 ng and 60420 ng and 105600 ng	0 ng and 13005 ng and 5502 ng	0 ng and 817 ng and 28696 ng	0 ng and 2582 ng and 5808 ng	49680 ng and 5664 ng and 8282 ng	0.13	97242	57230	9254	14757	4195	21209	79.8	O=[N+]([O-])c1ccc(O)c2ncccc12 [APL-1202, nitroxoline, reference compound]	124391 ng and 50517 ng and 23093 ng and 41201 ng and 88137 ng and 151622 ng	15.2% and 6.17% and 2.94% and 5.24% and 10.9% and 19.5%	2856 ng and 6652.8 ng and 784 ng and 4212 ng and 8250 ng and 2352 ng	1283 ng and 5325 ng and 957 ng and 2904 ng and 1530 ng and 346 ng	solubility at 30 min [3]: < 100 µg/mL; half-life (t1/2) [4]: 2.63 h; Mass of nitroxoline, 6~24 wash [2]: 249 ng and 1428 ng and 2341 ng and 1558 ng and 1102 ng and 152 ng; Mass of nitroxoline in urine, 0-2 hr [2]: 109552 ng and 10584 ng and 1360 ng and 21035 ng and 61040 ng and 137700 ng; Mass of nitroxoline in urine, 2-6 hr [2]: 10404 ng and 26418 ng and 17600 ng and 11412 ng and 14715 ng and 11000 ng; Mass of nitroxoline in urine, 6-24 hr [2]: 47.8 ng and 109 ng and 50.9 ng and 81 ng and 1500 ng and 71.5 ng; Total mass of nitroxoline in urine and wash, Mean [2]: 79827 ng; f (%): percentage of total mass of excreted drug versus the dose amount, Mean [2]: 10%; Mass of nitroxoline, 0~2 wash, Mean [2]: 4184 ng; Mass of nitroxoline, 2~6 wash, Mean [2]: 2057 ng; Mass of nitroxoline, 6~24 wash, Mean [2]: 1138 ng; Mass of nitroxoline in urine, 0-2 hr, Mean [2]: 56879 ng; Mass of nitroxoline in urine, 2-6 hr, Mean [2]: 15258 ng; Mass of nitroxoline in urine, 6-24 hr, Mean [2]: 310 ng
